SMILES strings stand for the structures. Where a name gives a salt, the structure may show the parent alone.

The target in the test is T1, human IDO1 (Homo sapiens, UniProt P14902).
T1 construct: expressed in transfected cells
T1 sequence (P14902 whole entry): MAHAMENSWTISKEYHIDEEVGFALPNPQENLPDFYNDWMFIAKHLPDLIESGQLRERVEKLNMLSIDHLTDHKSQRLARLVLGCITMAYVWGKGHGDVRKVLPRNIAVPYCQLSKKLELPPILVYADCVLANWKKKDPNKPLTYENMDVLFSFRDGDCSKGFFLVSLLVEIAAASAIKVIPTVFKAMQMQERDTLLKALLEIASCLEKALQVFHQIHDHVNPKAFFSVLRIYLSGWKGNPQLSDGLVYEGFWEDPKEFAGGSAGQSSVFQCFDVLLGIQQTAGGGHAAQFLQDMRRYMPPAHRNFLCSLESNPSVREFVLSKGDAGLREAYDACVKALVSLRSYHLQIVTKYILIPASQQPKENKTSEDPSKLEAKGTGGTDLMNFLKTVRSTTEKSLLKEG
Kind of test: IDO inhibition assay in HEK293 cells stably expressing human IDO1 (kynurenine production, Ehrlich reagent, absorbance 490 nm). The test is classed as cell-based. Particulars: 20 hours incubation with compound, 500 nM reference standard = 100% inhibition, read-out: IDO1 HEK Human IC50. As to the method: HEK293 cells were transfected with a pCDNA-based mammalian expression vector harboring human IDO1 cDNA (NM 002164.2) by electroporation. They were cultured in medium (DMEM with 10% FBS) containing 1 mg/ml G418 for two weeks. Clones of HEK293 cells that stably expressed human IDO1 protein were selected and expanded for IDO inhibition assay.
The human IDO1/HEK293 cells were seeded at 10,000 cells per 50 μL per well with RPMI/phenol red free media contains 10% FBS in a 384-well black wall clear bottom tissue culture plate (Matrix Technologies LLC) 100 nL of certain concentration of compound was then added to each well using ECHO liquid handling systems. The cells were incubated for 20 hours in 37° C. incubator with 5% CO2.
The compound treatments were stopped by adding trichloroacetic acid (Sigma-Aldrich) to a final concentration at 0.2%. The cell plate was further incubated at 50° C. for 30 minute. The equal volume supernatant (20 μL) and 0.2% (w/v) Ehrlich reagent (4-dimethylaminobenzaldehyde, Sigma-Aldrich) in glacial acetic acid were mixed in a new clear bottom 384-well plate. This plate was then incubated at RT for 30 minute. The absorbance at 490 nm was measured on Envision plate reader.
Compound IC50 values were calculated using the counts of 500 nM of a reference standard treatment as one hundred percent inhibition, and counts of no compound but DMSO treatment as zero percent inhibition.
For orientation: IC50 means the concentration at which inhibition is half-maximal. For the compound `CC(C)CN(Cc1ccccc1)c1cc(Nc2ccc(F)cc2F)cc(-c2ccccc2-c2nnn[nH]2)n1` [Example 56, 6-(2-(1H-tetrazol-5-yl)phenyl)-N2-benzyl-N4-(2,4-difluorophenyl)-N2-isobutylpyridine-2,4-diamine], the concentration for half-maximal inhibition (IC50) was 8.6 nM. To `CC(C)CN(Cc1ccccc1)c1cc(Nc2ccc3c(c2)OCO3)cc(-c2ccccc2-c2nnn[nH]2)n1` [Example 57, 6-(2-(1H-tetrazol-5-yl)phenyl)-N4-(benzo[d][1,3]dioxol-5-yl)-N2-benzyl-N2-isobutylpyridine-2,4-diamine] belongs 4 nM; to `CCCN(Cc1ccccc1)c1cc(Nc2ccc3nc(C)sc3c2)cc(-c2ccccc2-c2nnn[nH]2)n1` [Example 58, 6-(2-(1H-tetrazol-5-yl)phenyl)-N2-benzyl-N4-(2-methylbenzo [d]thiazol-6-yl)-N2-propylpyridine-2,4-diamine], 4.2 nM. To `CCCN(Cc1ccccc1)c1cc(Nc2nc(-c3ccccc3)cs2)cc(-c2ccccc2-c2nnn[nH]2)n1` [Example 59, 6-(2-(1H-tetrazol-5-yl)phenyl)-N2-benzyl-N4-(4-phenylthiazol-2-yl)-N2-propylpyridine-2,4-diamine] belongs 139 nM; to `CCCN(Cc1ccccc1)c1cc(Nc2nnc(C)s2)cc(-c2ccccc2-c2nnn[nH]2)n1` [Example 60, 6-(2-(1H-tetrazol-5-yl)phenyl)-N2-benzyl-N4-(5-methyl-1,3,4-thiadiazol-2-yl)-N2-propylpyridine-2,4-diamine], 831 nM; to `CCCN(Cc1ccccc1)c1cc(Nc2ccn(C)n2)cc(-c2ccccc2-c2nnn[nH]2)n1` [Example 61, 6-(2-(1H-tetrazol-5-yl)phenyl)-N2-benzyl-N4-(1-methyl-1H-pyrazol-3-yl)-N2-propylpyridine-2,4-diamine], 446 nM.

Take `CCCN(Cc1ccccc1)c1cc(Nc2nc3ccc(F)cc3s2)cc(-c2ccccc2-c2nnn[nH]2)n1` [Example 62, 6-(2-(1H-tetrazol-5-yl)phenyl)-N2-benzyl-N4-(6-fluorobenzo[d]thiazol-2-yl)-N2-propylpyridine-2,4-diamine]: the IC50 came to 56.8 nM. For `CCCN(CC1CC1)c1nc(NC(=O)Cc2ccc(C)cc2)cc(-c2ccccc2-c2nnn[nH]2)n1` [Example 64, N-(6-(2-(1H-tetrazol-5-yl)phenyl)-2-((cyclopropylmethyl)(propyl)amino)pyrimidin-4-yl)-2-(p-tolyl)acetamide, TFA] the value was 161 nM; for `CCCN(CC1CC1)c1nc(NC(=O)Nc2ccc(F)cc2)cc(-c2ccccc2-c2nnn[nH]2)n1` [Example 65, 1-(6-(2-(1H-tetrazol-5-yl)phenyl)-2-((cyclopropylmethyl)(propyl)amino)pyrimidin-4-yl)-3-(4-fluorophenyl)urea, TFA], 4530 nM. For `CCCN(CC1CC1)c1nc(NC(=O)Nc2ccc(C)cc2)cc(-c2ccccc2-c2nnn[nH]2)n1` [Example 66, 1-(6-(2-(1H-tetrazol-5-yl)phenyl)-2-((cyclopropylmethyl)(propyl)amino)pyrimidin-4-yl)-3-(p-tolyl)urea, TFA] the value was 440 nM; for `CCCN(CC1CC1)c1nc(NC(=O)Nc2ccc(OC(F)(F)F)cc2)cc(-c2ccccc2-c2nnn[nH]2)n1` [Example 67, 1-(6-(2-(1H-tetrazol-5-yl)phenyl)-2-((cyclopropylmethyl) (propyl)amino)pyrimidin-4-yl)-3-(4-(trifluoromethoxy)phenyl)urea], 2470 nM.

Regarding `Cc1ccc(CC(=O)Nc2cc(-c3ccccc3-c3nnn[nH]3)nc(N3CCCc4ccccc43)c2)cc1` [Example 68, N-(2-(2-(1H-tetrazol-5-yl)phenyl)-6-(3,4-dihydroquinolin-1(2H)-yl)pyridin-4-yl)-2-(p-tolyl)acetamide, TFA], the half-inhibitory concentration (IC50) turned out to be 324 nM. Consider `CC(C)CN(Cc1ccccc1)c1cc(NC(=O)Nc2ccc(F)cc2)cc(-c2ccccc2-c2nnn[nH]2)n1` [Example 69, 1-(2-(2-(1H-tetrazol-5-yl)phenyl)-6-(benzyl(isobutyl)amino)pyridin-4-yl)-3-(4-fluorophenyl)urea, TFA], for which the IC50 is 134 nM. To `CCCN(CC1CC1)c1cc(NC(=O)Cc2ccc(F)cc2F)cc(-c2ccccc2-c2nnn[nH]2)n1` [Example 70, N-(2-(2-(1H-tetrazol-5-yl)phenyl)-6-((cyclopropylmethyl)(propyl)amino)pyridin-4-yl)-2-(2,4-difluorophenyl)acetamide, TFA] belongs 422 nM. To `CCCN(Cc1ccccc1)c1cc(NC(=O)Nc2ccc(F)cc2F)cc(-c2ccccc2-c2nnn[nH]2)n1` [Example 71, 1-(2-(2-(1H-tetrazol-5-yl)phenyl)-6-(benzyl(propyl)amino)pyridin-4-yl)-3-(2,4-difluorophenyl)urea, TFA] belongs 32.2 nM. As to `CCCN(Cc1ccccc1)c1cc(NC(=O)Nc2ccc(Cl)cc2F)cc(-c2ccccc2-c2nnn[nH]2)n1` [Example 72, 1-(2-(2-(1H-tetrazol-5-yl)phenyl)-6-(benzyl(propyl)amino)pyridin-4-yl)-3-(4-chloro-2-fluorophenyl)urea, TFA], the IC50 was found to be 8.5 nM.

As for `CCCN(CC1CC1)c1cc(NC(=O)Cc2ccc(F)cc2)cc(-c2ccccc2-c2nnn[nH]2)n1` [Example 73, N-(2-(2-(1H-tetrazol-5-yl)phenyl)-6-((cyclopropylmethyl)(propyl)amino)pyridin-4-yl)-2-(4-fluorophenyl)acetamide, TFA], the IC50 worked out at 334 nM. Turning to `CC(C)CN(Cc1ccccc1)c1cc(Nc2ncc(C(F)(F)F)cn2)cc(-c2ccccc2-c2nnn[nH]2)n1` [Example 74, 6-(2-(1H-tetrazol-5-yl)phenyl)-N2-benzyl-N2-isobutyl-N4-(5-(trifluoromethyl)pyrimidin-2-yl)pyridine-2,4-diamine, TFA], the 50% inhibitory concentration (IC50) worked out at 75.6 nM. For `CCCN(Cc1ccc(F)cc1)c1cc(NC(=O)Cc2ccc(C)cc2F)cc(-c2ccccc2-c2nnn[nH]2)n1` [Example 75, N-(2-(2-(1H-tetrazol-5-yl)phenyl)-6-((4-fluorobenzyl)(propyl)amino)pyridin-4-yl)-2-(2-fluoro-4-methylphenyl)acetamide, TFA] the value was 27.9 nM; for `Cc1ccc(CC(=O)Nc2cc(-c3ccccc3-c3nnn[nH]3)nc(N3CCN(Cc4ccccc4)C(=O)C3)c2)cc1` [Example 76, N-(2-(2-(1H-tetrazol-5-yl)phenyl)-6-(4-benzyl-3-oxopiperazin-1-yl)pyridin-4-yl)-2-(p-tolyl)acetamide, TFA], 998 nM. In the case of `Cc1ccc(CC(=O)Nc2cc(-c3ccccc3-c3nnn[nH]3)nc(N(CC(C)C)C3CCOCC3)c2)cc1` [Example 77, N-(2-(2-(1H-tetrazol-5-yl)phenyl)-6-(isobutyl(tetrahydro-2H-pyran-4-yl)amino)pyridin-4-yl)-2-(p-tolyl)acetamide, TFA], the IC50 stood at 2090 nM. For `Cc1ccc(NC(=O)Nc2cc(-c3ccccc3-c3nnn[nH]3)nc(N(Cc3ccc(F)cc3)CC(C)C)c2)cc1` [Example 78, 1-(2-(2-(1H-tetrazol-5-yl)phenyl)-6-((4-fluorobenzyl)(isobutyl)amino)pyridin-4-yl)-3-(p-tolyl)urea, TFA] the value was 8.2 nM; for `Cc1ccc(CC(=O)Nc2cc(-c3ccccc3-c3nnn[nH]3)nc(N(Cc3ccccc3)CC(C)C)c2)c(F)c1` [Example 79, N-(2-(2-(1H-tetrazol-5-yl)phenyl)-6-(benzyl(isobutyl)amino)pyridin-4-yl)-2-(2-fluoro-4-methylphenyl)acetamide, TFA], 18.3 nM. For `CC(C)CN(Cc1ccccc1)c1cc(NC(=O)Cc2ccc(F)cc2)cc(-c2ccccc2-c2nnn[nH]2)n1` [Example 80, N-(2-(2-(1H-tetrazol-5-yl)phenyl)-6-(benzyl(isobutyl)amino)pyridin-4-yl)-2-(4-fluorophenyl)acetamide, TFA], the IC50 amounted to 350 nM. For the compound `CCCN(CC1CC1)c1cc(NC(=O)Cc2ccc(C)cc2F)cc(-c2ccccc2-c2nnn[nH]2)n1` [Example 82, N-(2-(2-(1H-tetrazol-5-yl)phenyl)-6-((cyclopropylmethyl)(propyl)amino)pyridin-4)-2-(2-fluoro-4-methylphenyl)acetamide, TFA], the IC50 was 731 nM. For `CCCN(CC1CC1)c1cc(NC(=O)Nc2ccc(Cl)cc2Cl)cc(-c2ccccc2-c2nnn[nH]2)n1` [Example 83, 1-(2-(2-(1H-tetrazol-5-yl)phenyl)-6-((cyclopropylmethyl)(propyl)amino)pyridin-4-yl)-3-(2,4-dichlorophenyl)urea, TFA] the value was 158 nM. For `CCCN(CC1CC1)c1cc(Nc2ncc(C(F)(F)F)cn2)cc(-c2ccccc2-c2nnn[nH]2)n1` [Example 84] the value was 373 nM; for `CCCN(Cc1ccc(F)cc1)c1cc(NC(=O)Cc2ccc(C)cc2)cc(-c2ccccc2-c2nnn[nH]2)n1` [Example 85, N-(2-(2-(1H-tetrazol-5-yl)phenyl)-6-((4-fluorobenzyl)(propyl)amino)pyridin-4-yl)-2-(p-tolyl)acetamide, TFA], 89.8 nM; for `CCCN(Cc1ccc(F)cc1)c1cc(NC(=O)Nc2ccc(Cl)cc2Cl)cc(-c2ccccc2-c2nnn[nH]2)n1` [Example 86, 1-(2-(2-(1H-tetrazol-5-yl)phenyl)-6-((4-fluorobenzyl)(propyl)amino)pyridin-4-yl)-3-(2,4-dichlorophenyl)urea], 8.6 nM.
